Results from patent publication US7138361B2, “Herbicidal heterocycles” (E. I. du Pont de Nemours and Company, priority 2000, dated 2006).

Key:
Assay type in all cases: in vivo
[1] = tested on: smallflower flatsedge (Cyperus difformis); assay: Test C flooded paddy test; conditions: for Flatsedge plant response rating: Flooded Paddy, scale 0 to 100, 0 no effect, 100 complete control; for Plant response rating, Flatsedge: flooded paddy test, scale 0 to 100 (0 no effect, 100 complete control)
Procedure, shortened: (§1)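 Ratings come from visual comparison with control plants after 12 to 14 days in the greenhouse. Each species was at the 2-leaf stage when the flooded paddy was treated. Scores run from 0, meaning no effect, to 100, meaning complete control.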

[2] = tested on: barnyardgrass (Echinochloa crus-galli); assay: Test C flooded paddy test; conditions: for Barnyardgrass plant response rating: Flooded Paddy, scale 0 to 100, 0 no effect, 100 complete control; for Plant response rating, Barnyardgrass: flooded paddy test, scale 0 to 100 (0 no effect, 100 complete control)
Procedure, shortened: as §1

[3] = tested on: duck salad (Heteranthera limosa); assay: Test C flooded paddy test; conditions: for Ducksalad plant response rating: Flooded Paddy, scale 0 to 100, 0 no effect, 100 complete control; for Plant response rating, Ducksalad: flooded paddy test, scale 0 to 100 (0 no effect, 100 complete control)
Procedure, shortened: as §1

[4] = tested on: Sunflower; assay: Test C preemergence; conditions: Rate 500 g/ha, visual evaluation after 12 to 14 days
[5] = tested on: corn (Zea mays); assay: Test C preemergence; conditions: for Plant response rating, Corn: scale 0 to 100, 0 no effect, 100 complete control; for Plant response rating (0 to 100), Corn: visual evaluation after 12 to 14 days
Text: (§2) Seeds of plant species selected from bermudagrass (Cynodon dactylon), Surinam grass (Brachiaria decumbens), cocklebur (Xanthium strumarium), corn (Zea mays), crabgrass (Digitaria sanguinalis), woolly cupgrass (Eriochloa villosa), giant foxtail (Setaria faberii), goosegrass (Eleusine indica), johnsongrass (Sorghum halepense), kochia (Kochia scoparia), lambsquarters (Chenopodium album), morningglory (Ipomoea hederacea), yellow nutsedge (Cyperus esculentus), pigweed (Amaranthus retroflexus), common ragweed (Ambrosia elatior), soybean (Glycine max) and velvetleaf (Abutilon theophrasti) were planted and treated preemergence with test chemicals formulated in a non-phytotoxic solvent mixture which included a surfactant.
(§3) At the same time, plants selected from these crop and weed species and also winter barley (Hordeum vulgare), blackgrass (Alopecurus myosuroides), canary grass (Phalaris minor), chickweed (Stellaria media), downy brome (Bromus tectorum), green foxtail (Setaria viridis), Italian ryegrass (Lolium multiflorum), wheat (Triticum aestivum), wild oat (Avena fatua) and windgrass (Apera spica-venti) were treated with postemergence applications of some of the test chemicals formulated in the same manner. Plants ranged in height from 2 to 18 cm (1- to 4-leaf stage) for postemergence treatments. Plant species in the flooded paddy test consisted of rice (Oryza saliva), smallflower flatsedge (Cyperus difformis), duck salad (Heteranthera limosa) and barnyardgrass (Echinochloa crus-galli) grown to the 2-leaf stage for testing. Treated plants and controls were maintained in a greenhouse for 12 to 14 days, after which time all species were compared to controls and visually evaluated. Plant response ratings, summarized in Table C, are based on a scale of 0 to 100 where 0 is no effect and 100 is complete control. A dash (-) response means no test result.

[6] = tested on: goosegrass (Eleusine indica); assay: Test C preemergence; conditions: for Plant response rating, Goosegrass: scale 0 to 100, 0 no effect, 100 complete control; for Plant response rating (0 to 100), Goosegrass: visual evaluation after 12 to 14 days
Text: as §2, §3

[7] = tested on: kochia (Kochia scoparia); assay: Test C preemergence; conditions: for Plant response rating, Kochia: scale 0 to 100, 0 no effect, 100 complete control; for Plant response rating (0 to 100), Kochia: visual evaluation after 12 to 14 days
Text: as §2, §3

[8] = tested on: bermudagrass (Cynodon dactylon); assay: Test C preemergence; conditions: for Plant response rating, Bermudagrass: scale 0 to 100, 0 no effect, 100 complete control; for Plant response rating (0 to 100 where 0 is no effect and 100 is complete control), Bermudagrass: visual evaluation after 12 to 14 days
Text: as §2, §3

[9] = tested on: velvetleaf (Abutilon theophrasti); assay: Test C preemergence; conditions: preemergence; for Plant response rating, Velvetleaf: scale 0 to 100, 0 no effect, 100 complete control
Text: as §2, §3

[10] = tested on: soybean (Glycine max); assay: Test C preemergence; conditions: preemergence; for Plant response rating, Soybean: scale 0 to 100, 0 no effect, 100 complete control
Text: as §2, §3

[11] = tested on: yellow nutsedge (Cyperus esculentus); assay: Test C preemergence; conditions: for Plant response rating, Nutsedge: scale 0 to 100, 0 no effect, 100 complete control
Text: as §2, §3

[12] = tested on: crabgrass (Digitaria sanguinalis); assay: Test C preemergence; conditions: for Plant response rating, Crabgrass: scale 0 to 100, 0 no effect, 100 complete control; for Plant response rating (0 to 100), Crabgrass: visual evaluation after 12 to 14 days
Text: as §2, §3

[13] = tested on: Surinam grass (Brachiaria decumbens); assay: Test C preemergence; conditions: for Plant response rating, Surinam grass: scale 0 to 100, 0 no effect, 100 complete control; for Plant response rating (0 to 100), Surinam grass: visual evaluation after 12 to 14 days
Text: as §2, §3

[14] = tested on: woolly cupgrass (Eriochloa villosa); assay: Test C preemergence; conditions: for Plant response rating, Cupgrass, Woolly: scale 0 to 100, 0 no effect, 100 complete control; for Plant response rating (0 to 100), Cupgrass, Woolly: visual evaluation after 12 to 14 days
Text: as §2, §3

[15] = tested on: johnsongrass (Sorghum halepense); assay: Test C preemergence; conditions: for Plant response rating, Johnsongrass: scale 0 to 100, 0 no effect, 100 complete control; for Plant response rating (0 to 100), Johnsongrass: visual evaluation after 12 to 14 days
Text: as §2, §3

[16] = tested on: giant foxtail (Setaria faberii); assay: Test C preemergence; conditions: for Plant response rating, Foxtail, Giant: scale 0 to 100, 0 no effect, 100 complete control; for Plant response rating (0 to 100), Foxtail, Giant: visual evaluation after 12 to 14 days
Text: as §2, §3

[17] = tested on: lambsquarters (Chenopodium album); assay: Test C preemergence; conditions: for Plant response rating, Lambsquarters: scale 0 to 100, 0 no effect, 100 complete control
Text: as §2, §3

[18] = tested on: pigweed (Amaranthus retroflexus); assay: Test C preemergence; conditions: preemergence; for Plant response rating, Pigweed: scale 0 to 100, 0 no effect, 100 complete control
Text: as §2, §3

[19] = tested on: cocklebur (Xanthium strumarium); assay: Test C preemergence; conditions: for Plant response rating, Cocklebur: scale 0 to 100, 0 no effect, 100 complete control; for Plant response rating (0 to 100), Cocklebur: visual evaluation after 12 to 14 days
Text: as §2, §3

[20] = tested on: Nightshade; assay: Test C preemergence; conditions: scale 0 to 100, 0 no effect, 100 complete control
Text: as §2, §3

[21] = tested on: morningglory (Ipomoea hederacea); assay: Test C preemergence; conditions: for Plant response rating, Morningglory: scale 0 to 100, 0 no effect, 100 complete control
Text: as §2, §3

[22] = Rate 500 g/ha, visual evaluation after 12 to 14 days
[23] = preemergence, Rate 500 g/ha, visual evaluation after 12 to 14 days

CCOC(=O)c1cccc(N2CCC(n3ccc(C(C)(C)C)n3)C2=O)c1 (centres unmarked) [Compound 72]
50: Barnyardgrass plant response rating ([2]; Rate 250 g/ha) | Plant response rating, Barnyardgrass ([2]; Rate 125 g/ha) | Plant response rating (0 to 100), Surinam grass ([13]; preemergence, Rate 500 g/ha)
0: Plant response rating, Barnyardgrass ([2]; Rate 62 g/ha) | Plant response rating, Corn ([5]; Rate 62 g/ha) | Plant response rating (0 to 100), Corn ([5]; preemergence, Rate 250 g/ha) | Plant response rating (0 to 100), Corn ([5]; preemergence, Rate 500 g/ha) | Plant response rating, Corn ([5]; preemergence, Rate 125 g/ha) | Plant response rating, Bermudagrass ([8]; Rate 62 g/ha) | Plant response rating, Velvetleaf ([9]; Rate 125 g/ha) | Plant response rating, Soybean ([10]; Rate 125 g/ha) | Plant response rating, Soybean ([10]; Rate 250 g/ha) | Plant response rating, Nutsedge ([11]; Rate 62 g/ha) | Plant response rating, Nutsedge ([11]; preemergence, Rate 125 g/ha) | Plant response rating, Surinam grass ([13]; Rate 62 g/ha) | Plant response rating, Cupgrass, Woolly ([14]; Rate 62 g/ha) | Plant response rating, Johnsongrass ([15]; Rate 62 g/ha) | Plant response rating (0 to 100), Johnsongrass ([15]; preemergence, Rate 250 g/ha) | Plant response rating, Johnsongrass ([15]; preemergence, Rate 125 g/ha) | Plant response rating, Lambsquarters ([17]; Rate 62 g/ha) | Plant response rating, Pigweed ([18]; Rate 250 g/ha) | Plant response rating, Cocklebur ([19]; Rate 62 g/ha) | Plant response rating, Morningglory ([21]; Rate 62 g/ha)
60: Plant response rating, Flatsedge ([1]; Rate 62 g/ha) | Plant response rating (0 to 100), Sunflower [4]
100: Flatsedge plant response rating ([1]; Rate 500 g/ha) | Plant response rating (0 to 100), Kochia ([7]; preemergence, Rate 500 g/ha) | Plant response rating, Kochia ([7]; preemergence, Rate 125 g/ha) | Plant response rating (0 to 100 where 0 is no effect and 100 is complete control), Bermudagrass ([8]; preemergence, Rate 500 g/ha) | Plant response rating (0 to 100), Crabgrass ([12]; preemergence, Rate 250 g/ha) | Plant response rating (0 to 100), Crabgrass ([12]; preemergence, Rate 500 g/ha) | Plant response rating, Crabgrass ([12]; preemergence, Rate 125 g/ha) | Plant response rating (0 to 100), Lambsquarters [17, 23] | Plant response rating, Lambsquarters ([17]; preemergence, Rate 125 g/ha) | Plant response rating, Lambsquarters ([17]; preemergence, Rate 250 g/ha) | Plant response rating (0 to 100), Pigweed [18, 22] | Plant response rating, Pigweed ([18]; Rate 125 g/ha) | Plant response rating (0 to 100), Morningglory [21, 23]
40: Plant response rating, Ducksalad ([3]; Rate 62 g/ha) | Plant response rating (0 to 100), Velvetleaf [9, 22] | Plant response rating (0 to 100), Johnsongrass ([15]; preemergence, Rate 500 g/ha)
10: Plant response rating, Velvetleaf ([9]; Rate 250 g/ha) | Plant response rating, Cupgrass, Woolly ([14]; preemergence, Rate 125 g/ha) | Plant response rating (0 to 100), Cocklebur ([19]; preemergence, Rate 250 g/ha) | Plant response rating, Nightshade ([20]; Rate 125 g/ha) | Plant response rating, Morningglory ([21]; preemergence, Rate 250 g/ha)
70: Plant response rating, Goosegrass ([6]; preemergence, Rate 125 g/ha) | Plant response rating (0 to 100), Cupgrass, Woolly ([14]; preemergence, Rate 500 g/ha) | Plant response rating (0 to 100), Foxtail, Giant ([16]; preemergence, Rate 250 g/ha) | Plant response rating, Foxtail, Giant ([16]; preemergence, Rate 125 g/ha) | Plant response rating (0 to 100), Cocklebur ([19]; preemergence, Rate 500 g/ha)
20: Plant response rating, Goosegrass ([6]; Rate 62 g/ha) | Plant response rating (0 to 100), Soybean [10, 22] | Plant response rating (0 to 100), Nutsedge [11, 23] | Plant response rating, Nutsedge ([11]; preemergence, Rate 250 g/ha)
90: Flatsedge plant response rating ([1]; Rate 250 g/ha) | Plant response rating, Flatsedge ([1]; Rate 125 g/ha) | Ducksalad plant response rating ([3]; Rate 250 g/ha) | Ducksalad plant response rating ([3]; Rate 500 g/ha) | Plant response rating (0 to 100), Goosegrass ([6]; preemergence, Rate 500 g/ha) | Plant response rating (0 to 100), Kochia ([7]; preemergence, Rate 250 g/ha) | Plant response rating (0 to 100 where 0 is no effect and 100 is complete control), Bermudagrass ([8]; preemergence, Rate 250 g/ha) | Plant response rating, Bermudagrass ([8]; preemergence, Rate 125 g/ha) | Plant response rating, Crabgrass ([12]; Rate 62 g/ha) | Plant response rating (0 to 100), Foxtail, Giant ([16]; preemergence, Rate 500 g/ha)
80: Barnyardgrass plant response rating ([2]; Rate 500 g/ha) | Plant response rating, Ducksalad ([3]; Rate 125 g/ha) | Plant response rating (0 to 100), Goosegrass ([6]; preemergence, Rate 250 g/ha) | Plant response rating (0 to 100), Surinam grass ([13]; preemergence, Rate 250 g/ha) | Plant response rating (0 to 100), Cupgrass, Woolly ([14]; preemergence, Rate 250 g/ha)
30: Plant response rating, Kochia ([7]; Rate 62 g/ha) | Plant response rating, Surinam grass ([13]; preemergence, Rate 125 g/ha) | Plant response rating, Foxtail, Giant ([16]; Rate 62 g/ha) | Plant response rating, Cocklebur ([19]; preemergence, Rate 125 g/ha) | Plant response rating, Nightshade ([20]; Rate 62 g/ha) | Plant response rating, Nightshade ([20]; Rate 250 g/ha) | Plant response rating, Morningglory ([21]; preemergence, Rate 125 g/ha)
